This assay addresses Peptidyl-prolyl cis-trans isomerase A (Homo sapiens, UniProt P62937). Kind of assay: CYPA Binding Analysis by Surface Plasmon Resonance (SPR) Assay. Here is the method: All SPR experiments were conducted on a Biacore 8K+ instrument (Cytiva). Recombinant biotinylated CYPA protein with a C-terminal AVI tag was purified and immobilized on flow cell 2 of SA chip (Cytiva, BR100531), with the flow cell 1 as the blank reference. The running buffer was HBS-P+ Buffer (Cytiva, BR100827, 0.01 M HEPES pH 7.4,0.15 M NaCl, 0.05% v/v Surfactant P20), and the flow rate was 10 μL/min. The immobilization level was achieved to about 1800 response units (RU). Compounds were 3-fold serially diluted to 1.5-3333 nM using HBS-P+Buffer with a final DMSO concentration of 1.5%, and then loaded to flow through the chip surface at a rate of 30 μL/min with HBS-P+Buffer containing 1.5% DMSO as the running buffer. Experiments were performed at 25° C. The contact time and dissociation time were set to 60 s and 200 s, respectively. After binding and dissociation of each sample, the chip was regenerated using 1 M NaCl with a short contact time of 19 s at a rate of 60 μL/min. The sensorgrams were analyzed using Biacore Insight Evaluation software with 1:1 kinetics binding model to determine the association rate constant (kon), dissociation rate constant (koff) and equilibrium dissociation constant (KD).

Structures are written as SMILES.

Chain of Peptidyl-prolyl cis-trans isomerase A (P62937 whole entry): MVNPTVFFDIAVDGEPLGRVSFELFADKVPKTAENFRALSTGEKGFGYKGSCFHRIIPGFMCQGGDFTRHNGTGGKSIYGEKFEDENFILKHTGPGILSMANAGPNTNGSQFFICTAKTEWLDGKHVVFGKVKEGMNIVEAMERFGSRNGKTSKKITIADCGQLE

As for `CCn1c(-c2cc(N3CCN(C)CC3)cnc2[C@H](C)OC)c2c3cc(ccc31)-c1csc(n1)C[C@H](NC(=O)[C@H]1C[C@@H]1C)C(=O)N1CCC[C@H](N1)C(=O)OCC(C)(C)O2` [US20240417410, Example A122], the Kd was determined as 30 nM.

The values are drawn from BindingDB's records for patent US20240417410 (Hoffmann-La Roche, 2024).
